Data from patent US4048167A, “N,N-disubstituted derivatives of 3-carboxamide or 3-thiocarboxamide-7-(3-chloro-2-propenyl)-1,3,5,7-tetraazabicyclo(3.3.1) nonane and preparation II” (The Dow Chemical Company, priority 1976, dated 1977).
Values after ≈ are worked out from the molar mass of the structure shown.

Assays:
Format in all cases: cell-based
B. subtilis = test: agar Petri dish dilution test, B. subtilis; details: Bacillus subtilis
mentagrophytes = test: agar Petri dish dilution test, mentagrophytes
[1] = test system: Pseudomas Species Str. 10; test: agar Petri dish dilution test, Pseudomas Species Str. 10; details: read-out: MIC, Ps
A. aerogenes = test: agar Petri dish dilution test, A. aerogenes; details: Klebsiella aerogenes
S. aureus = test: agar Petri dish dilution test, S. aureus; details: Staphylococcus aureus
M. phlei = test: agar Petri dish dilution test, M. phlei; details: Mycolicibacterium phlei
E. coli = test: agar Petri dish dilution test, E. coli; details: Escherichia coli

Structure (SMILES)	MIC (B. subtilis) [µg/mL]	MIC (mentagrophytes) [µg/mL]	MIC [1] [µg/mL]	MIC (A. aerogenes) [µg/mL]	MIC (S. aureus) [µg/mL]	MIC (M. phlei) [µg/mL]	MIC (E. coli) [µg/mL]
CN(C)C(=O)N1CN2CN(C/C=C\Cl)CN(C2)C1 [Example 1, N,N-Dimethyl-3-Carboxamide-7-cis-(3-Chloro-2-Propenyl)-1,3,5,7-Tetraazabicyclo(3.3.1)Nonane]	100 (≈ 365 µM)	100 (≈ 365 µM)	500 (≈ 1830 µM)	100 (≈ 365 µM)	500 (≈ 1830 µM)	500 (≈ 1830 µM)	500 (≈ 1830 µM)
CCN(CC)C(=O)N1CN2CN(C/C=C\Cl)CN(C2)C1 [Example 2 a.]	100 (≈ 331 µM)	100 (≈ 331 µM)	–	100 (≈ 331 µM)	500 (≈ 1660 µM)	500 (≈ 1660 µM)	100 (≈ 331 µM)
O=C(N1CN2CN(C/C=C\Cl)CN(C2)C1)N(c1ccccc1)c1ccccc1 [Example 2 b.]	500 (≈ 1260 µM)	100 (≈ 251 µM)	500 (≈ 1260 µM)	500 (≈ 1260 µM)	500 (≈ 1260 µM)	500 (≈ 1260 µM)	500 (≈ 1260 µM)
CN(C(=O)N1CN2CN(C/C=C\Cl)CN(C2)C1)c1ccccc1 [Example 2 c.]	500 (≈ 1490 µM)	100 (≈ 298 µM)	500 (≈ 1490 µM)	500 (≈ 1490 µM)	500 (≈ 1490 µM)	500 (≈ 1490 µM)	500 (≈ 1490 µM)
CN(C)C(=S)N1CN2CN(C/C=C\Cl)CN(C2)C1 [Example 2 d.]	100 (≈ 345 µM)	100 (≈ 345 µM)	500 (≈ 1730 µM)	500 (≈ 1730 µM)	500 (≈ 1730 µM)	500 (≈ 1730 µM)	500 (≈ 1730 µM)
